Results on three compounds are retold here after ChEMBL document CHEMBL1139253, “Effect of methyl substitution in a ligand on the selectivity and binding affinity for a nucleobase: a case study with isoxanthopterin and its derivatives” (Bioorg Med Chem, 2009).

A short description of assay [1]: Binding affinity to target base T of 5'-TCC AGX GCA AC-3'/3'_AGG TCT CGT TG-5' 11 mer duplex DNA containing abasic site assessed as melting temperature at 150 uM by spectrophotometric analysis.
Assay [2] is described as follows: Binding affinity to target base A of 5'-TCC AGX GCA AC-3'/3'_AGG TCA CGT TG-5' 11 mer duplex DNA containing abasic site assessed as melting temperature at 150 uM by spectrophotometric analysis relative to control.
Assay [3] is described as follows: Binding affinity to target base C of 5'-TCC AGX GCA AC-3'/3'_AGG TCC CGT TG-5' 11 mer duplex DNA containing abasic site assessed as melting temperature at 150 uM by spectrophotometric analysis relative to control.
Assay [4] in a line: Binding affinity to target base A of 5'-TCC AGX GCA AC-3'/3'_AGG TCA CGT TG-5' 11 mer duplex DNA containing abasic site assessed as melting temperature at 150 uM by spectrophotometric analysis.
The nature of assay [5]: Binding affinity to target base C of 5'-TCC AGX GCA AC-3'/3'_AGG TCC CGT TG-5' 11 mer duplex DNA containing abasic site assessed as melting temperature at 150 uM by spectrophotometric analysis.
A short description of assay [6]: Binding affinity to target base G of 5'-TCC AGX GCA AC-3'/3'_AGG TCG CGT TG-5' 11 mer duplex DNA containing abasic site assessed as melting temperature at 150 uM by spectrophotometric analysis relative to control.
The nature of assay [7]: Binding affinity to target base G of 5'-TCC AGX GCA AC-3'/3'_AGG TCG CGT TG-5' 11 mer duplex DNA containing abasic site assessed as melting temperature at 150 uM by spectrophotometric analysis.
Assay [8] can be described thus: Binding affinity to target base T of 5'-TCC AGX GCA AC-3'/3'_AGG TCT CGT TG-5' 11 mer duplex DNA containing abasic site at 10 uM by fluorescence quenching measurement.
Assay [9] is described as follows: Binding affinity to target base T of 5'-TCC AGX GCA AC-3'/3'_AGG TCT CGT TG-5' 11 mer duplex DNA containing abasic site assessed as melting temperature at 150 uM by spectrophotometric analysis relative to control.
Assay [10] in a line: Binding affinity to target base C of 5'-TCC AGX GCA AC-3'/3'_AGG TCC CGT TG-5' 11 mer duplex DNA containing abasic site at 10 uM by fluorescence quenching measurement.

In the case of `Cn1c(N)nc2[nH]c(=O)cnc2c1=O`, the Tm – broadly, the temperature at the midpoint of the melting transition – in [1] came to 33.9 °C; in assay [4], 35.6 °C; in [5], 29.6 °C; in [7], 34.9 °C. Further, the ΔTm (as a rule, the shift of the melting midpoint relative to a reference) in [2] was 1.8 °C; in assay [3], 0.4 °C; in assay [6], 0.9 °C; in assay [9], 6 °C. Moreover, the Activity in [8] was found to be 72.9%.

In the case of `Nc1nc2[nH]c(=O)cnc2c(=O)[nH]1`, the melting temperature (Tm) in [1] is 32.7 °C; in [4], 36 °C; in [5], 33.7 °C; in [7], 33.6 °C. Also, the ΔTm in assay [2] was 2.2 °C; in [3], 4.5 °C; in [6] it was -0.4 °C; in assay [9], 4.8 °C. The values for the Activity in assay [10] and in assay [8] were 43.5% and 51.7%, respectively.

With `Cn1c(=O)cnc2c(=O)[nH]c(N)nc21`, the Tm in assay [1] turned out to be 29.7 °C; in [4], 34 °C; in [5], 35.1 °C; in [7] it was 34.9 °C. In addition, the ΔTm in assay [2] was 0.2 °C; in assay [3], 5.9 °C; in assay [6], 0.9 °C; in assay [9], 1.8 °C. In [10], this compound registered an Activity of 72%.
